# Measured values published in publication PMC10374545, “A small molecule inhibitor of PTP1B and PTPN2 enhances T cell anti-tumor immunity” (Nature Communications, 2023).
# Values joined by “and” are separate entries in the source; they are usually repeats but may differ in a detail not shown here. Equal values may be shown once.
# What was measured:
# [1] = tested on: STAT-1 target genes in AT3 tumors; test: qPCR of STAT-1 target genes in AT3 tumors; type: in vivo, mouse
# Procedure: For quantitative real-time PCR analysis, RNA from tumors was isolated using RNAzol (Sigma-Aldrich, St. Louis, MO), and RNA quality was assessed using a NanoDrop 2000 (Thermo Fisher Scientific, Waltham MA). mRNA was reverse-transcribed using the High-Capacity cDNA Reverse Transcription Kit (Applied Biosystems, Thermo Fisher Scientific, Waltham, MA) and processed for quantitative Real-Time PCR using the Fast SYBR Green Master Mix (Applied Biosystems, Thermo Fisher Scientific, Waltham MA) and PrimePCR™ SYBR Green Assays (Bio-Rad, Hercules, CA) for Cxcl9 (qMmuCID0023784), Cxcl10 (qMmuCED0049500), Tapbp (qMmuCEP0035035), Tap1 (qMmuCEP0057739), […], H2ab1 (qMmuCIP0029038), Cd274 (qMmuCED0044192), H2k1 (qMmuCEP0034842), Tnf (qMmuCED0004141) and Ifng (qMmuCID0006268). Relative gene expression was determined by normalization to the house-keeping gene Rps18 (qMmuCED0045430) or Gapdh (qMmuCED0027497). Gene quantification was performed with the comparative Ct (ΔΔCt) method.
# [2] = tested on: p-STAT-1 and CD3 in AT3 tumors; test: Immunohistochemistry for p-STAT-1 (Y701) and CD3 in AT3 tumors; type: in vivo, mouse; conditions: 10 mg/kg i.v.
# Procedure: For the immunohistochemistry analysis of mammary tumor samples, samples were dissected and fixed in 10% formalin. After fixation, the tissues were embedded in paraffin and sectioned onto microscopic glass slides at 4 μm thickness per section. After deparaffinization and rehydration, the slides were subjected to antigen retrieval in Tris/EDTA buffer (pH 8.0) at 120 °C for 10 min and then cooled down to room temperature. The slides were blocked with 5% (v/v) normal goat serum (NGS) containing 0.1% (v/v) TritonX-100 in PBS for 1 h at room temperature and then incubated with primary antibody p-STAT-1 (Tyr701) (1:500; Cell Signaling Technology), or CD3ε (1:1000; Dako) at room temperature for 1 h. Slides were then washed with PBS containing 0.05% (w/v) Tween-20 and visualized using a rabbit IgG VECTORSTAIN ABC Elite and DAB (3,3′‐diaminobenzidine) Peroxidase Substrate Kit (Vector Laboratories, UK) and counterstained with haematoxylin. Slides were imaged on an Olympus CX43 microscope (Olympus, Tokyo, Japan).
# AT3 mammary tumors = test: AT3 tumor growth, Compound 182 with α-PD-1 checkpoint blockade; type: in vivo, mouse
# Procedure: Male or female mice were injected subcutaneously with 5 × 10^5 MC38 tumor cells resuspended in 100 μl D-PBS into the flank. Alternatively, female mice were injected orthotopically with 5 × 10^5 AT3 or AT3-OVA or PTPN2-deleted AT3 or AT3-OVA tumor cells resuspended in 20 μl D-PBS into the fourth mammary fat pad. Tumor sizes were measured in two dimensions (mm^2) using electronic callipers two to three times per week as soon as tumors were palpable (20–25 mm^2).
# In addition, mice received four intraperitoneal injections of α-PD-1 (200 μg in 200 μl D-PBS; clone RMP1-14), or rat IgG2a isotype control (100 μg in 200 μl D-PBS, Bio X Cell) twice per week.
# PTPN2 = target: T1, PTPN2 (Homo sapiens, UniProt P17706); test: Mode of inhibition and Ki, Lineweaver-Burk kinetic analysis with DiFMUP; type: biochemical
# T1 construct: PTPN2, residues 1-387; made in house; host or cells: E. coli BL21(DE3)
# T1 sequence (P17706 1-387 isoform P17706-2): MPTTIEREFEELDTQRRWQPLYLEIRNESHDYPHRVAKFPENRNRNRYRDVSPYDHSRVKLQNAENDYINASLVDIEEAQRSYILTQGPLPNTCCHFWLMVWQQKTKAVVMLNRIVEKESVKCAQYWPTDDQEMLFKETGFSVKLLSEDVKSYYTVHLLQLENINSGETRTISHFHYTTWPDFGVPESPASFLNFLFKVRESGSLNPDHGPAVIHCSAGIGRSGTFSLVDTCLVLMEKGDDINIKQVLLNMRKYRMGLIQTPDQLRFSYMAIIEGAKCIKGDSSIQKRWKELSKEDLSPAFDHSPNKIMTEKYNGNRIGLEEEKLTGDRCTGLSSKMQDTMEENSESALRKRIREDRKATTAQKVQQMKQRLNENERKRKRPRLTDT
# Procedure: To determine the mode of inhibition, the reactions were initiated by the addition of enzyme (final concentration for PTP1B and PTPN2 was 0.05 nM) to the reaction mixtures (0.2 ml) containing various concentrations of DiFMUP with different concentrations of the inhibitor. The reaction was allowed to proceed for 10 min and then quenched by the addition of 40 µl of a 160 µM solution of bpV(Phen) (Sigma-Aldrich, cat# SML0889). The fluorescence signal was measured using a CLARIOstar Plus Microplate Spectrophotometer (BMG Labtech) using excitation and emission wavelength of 340 nm and 450 nm, respectively. Data were fitted using Prism GraphPad 9.2.0. For selectivity studies, the inhibition assay for other PTPs were performed under the same conditions as used for PTP1B and PTPN2 except with different DiFMUP concentration corresponding to the Km of the PTP studied.
# [3] = Figure 9A, qPCR in tumour, individual mice, CMP-182 vs Saline
compound,measurement,setting,value
"CC(C)(O)CCOc1ccc2cc(O)c(N3CC(=O)NS3(=O)=O)c(F)c2c1 [Compound 182, 5-(1-Fluoro-3-hydroxy-7-(3-hydroxy-3-methylbutoxy)naphthalen-2-yl)−1,2,5-thiadiazolidin-3-one 1,1-dioxide]","expression of STAT-1 target genes, including Cd274, in AT3 tumors",[1]; 10 mg/kg i.v.,increased expression
same,cd274,[1]; [3],1.71 and 1.441 and 1.3642 and 1.436 and 2.196 and 0.7307
same,cxcl9,[1]; [3],2.179 and 2.3662 and 1.906 and 0.2814 and 3.487 and 0.6344
same,cxcl10,[1]; [3],1.765 and 1.612 and 1.49 and 0.6644 and 2.144 and 0.8593
same,tumor p-STAT-1 and CD3+ T cell infiltrates in AT3 tumors of Lck-Cre;Ptpn2fl/fl mice,[2],enhanced promotion
same,response of AT3 tumors to PD-1 checkpoint blockade,AT3 mammary tumors; 10 mg/kg i.v. every 2 days with α-PD-1 200 μg i.p. twice per week,rendered otherwise largely resistant AT3 tumors sensitive
same,"AT3 tumor growth, combination therapy",AT3 mammary tumors; Compound 182 10 mg/kg i.v. + α-PD-1 200 μg i.p.,marked repression
same,Tumour weights,"AT3 mammary tumors; Figure 9C, AT-3, individual mice, listed as CMP-182, in mg (unit assumed)",195 and 335 and 220 and 301 and 250 and 332
same,mode of inhibition,PTPN2; Lineweaver-Burk,classic competitive inhibitor
same,Ki,"PTPN2; varying inhibitor and DiFMUP, steady state",0.26 ± 0.02 nM
